Values of other authors, collected in patent publication US8968778B2, “Threo-DOPS controlled release formulation” (Lundbeck NA Ltd., priority 2003, dated 2015).

Assays:
[1] = test system: microvessel preparations

In the case of `N[C@H](C(=O)O)[C@H](O)c1ccc(O)c(O)c1` [threo-DOPS, Threo-3-(3,4-dihydroxyphenyl)serine], the “Specific uptake in microvessel preparations” value [1] is listed as “Specific uptake”.

For `N[C@H](C(=O)O)[C@H](O)c1ccc(O)c(O)c1` [L-threo-DOPS], the “Time that increased plasma levels of both molecules (L-threo-DOPS and NE) remain” value (after oral administration of L-threo-DOPS) is listed as “at least 12 hours”, the “Time of peak plasma levels of L-threo-DOPS” value (after oral ingestion) is listed as 3 h and the “Time of peak NE levels” value (after oral ingestion of L-threo-DOPS, norepinephrine in plasma) is listed as 5 h.
